Source: patent publication US8461183B2, “PPAR agonist compounds, preparation and uses” (Genfit, priority 2008, dated 2013)

Legend:
3 PPAR isoforms = assay: PPAR agonist properties of compound 1, different method and equipment (not described)
Method: The measured activities differ depending on the compound tested and the compounds according to the invention are also observed to have varying selectivity with respect to the various isoforms of hPPAR: • Certain compounds according to the invention are selective for a subtype of PPAR. […] Compound 1 of the invention was also tested for its PPAR agonist properties. […] As the measurements obtained for compound 1 were carried out according to a different method and with different equipment, relative to the other 53 compounds in the examples, the corresponding results are not presented in Table 8-1 above.

hPPARα = target: T1, hPPARα (Homo sapiens, UniProt Q07869); assay: Gal4-hPPARα chimera transactivation (luciferase) in COS-7 cells; assay type: cell-based; conditions: COS-7 cells, Gal4-hPPARα, 24 hours
T1 construct: corresponding to the DEF domains (structural elements of the promoter of the PPARs: D=hinge, EF=ligand fixation domain and AF2 fixation site); expressed in transfected cells; host or cells: COS-7 (monkey kidney fibroblasts)
T1 sequence (Q07869 239-466 limits assumed): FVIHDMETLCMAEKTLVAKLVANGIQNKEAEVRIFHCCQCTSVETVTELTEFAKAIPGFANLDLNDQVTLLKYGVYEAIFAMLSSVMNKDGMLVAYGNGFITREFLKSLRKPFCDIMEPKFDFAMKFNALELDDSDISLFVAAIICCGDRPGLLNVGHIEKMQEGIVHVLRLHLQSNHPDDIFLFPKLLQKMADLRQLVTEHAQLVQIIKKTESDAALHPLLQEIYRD
How it was run: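 COS-7 cells transiently co-transfected with Gal4 DBD–human PPARα, γ or δ DEF-domain chimeras plus Gal4(RE)_TkpGL3 luciferase reporter (1/10), seeded serum-free, then compound-treated 24 h at 37 °C in 1% Ultroser. Luciferase read after lysis; EC50 and TOP % relative to maximal activation by fenofibric acid (α), rosiglitazone (γ) or GW501516 (δ).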

[1] = test system: 3T3-L1 murine pre-adipocytes; assay: PPARγ functional effect: adipogenesis in 3T3-L1 pre-adipocytes (triglycerides, adiponectin); assay type: cell-based, Mus musculus; conditions: 3T3-L1, 9 days of treatment, 30 nM to 30 μM
Method: The functional effect of activation of PPARγ is evaluated in vitro on a line of pre-adipocyte cells 3T3-L1 (Thompson G M et al., 2004) by measuring the concentration of intracellular triglycerides and the concentration of adiponectin secreted in the culture medium after 9 days of treatment with the compounds according to the invention.
At confluence, the cells were then rinsed with PBS (Phosphate Buffered Saline solution) and the culture medium was replaced with DMEM 4.5 g/L glucose (10% FCS, 1% L-glutamine, 100 units/mL penicillin and 100 μg/mL streptomycin, 0.25 mM) containing a cocktail for initiation of adipocyte differentiation (IBMX (3-isobutyl-1-methylxanthine Sigma; 17018), 0.1 μM dexamethasone (Sigma; D1756) and 0.4 μM of insulin (Sigma; I2643). The cells were also treated with the compounds according to the invention (1 μL of solubilized compound/mL of medium, 200 μL per well).
After 2 days of incubation, the cells were washed with PBS and the differentiation medium was replaced with DMEM 4.5 g/L of glucose supplemented with 10% FCS, 1% L-glutamine, 100 units/mL penicillin and 100 μg/mL streptomycin, 0.4 μM insulin, and the compounds according to the invention for the purpose of completing cellular differentiation and obtaining adipocytes. The medium was changed every 2 days until total differentiation. After culture for 9 days, the treatment was stopped by withdrawing the culture medium, which was stored for assaying secreted adiponectin. The cells were then washed twice with PBS and placed in isopropanol for membrane permeabilization. The content of intracellular triglycerides was evaluated immediately.
Quantification of intracellular triglycerides was performed with the “Triglyceride Enzymatic PAP1000” kit (bioMérieux; 61238) according to the supplier's recommendations. Secreted adiponectin was measured in the culture medium using the “Mouse Adiponectin/Acrp30 Elisa Kit” kit (R&D Systems; DY1119) according to the supplier's recommendations.

hPPARγ = target: T2, hPPARγ (Homo sapiens, UniProt P37231); assay: Gal4-hPPARγ chimera transactivation (luciferase) in COS-7 cells; assay type: cell-based; conditions: 24 hours
T2 construct: corresponding to the DEF domains (structural elements of the promoter of the PPARs: D=hinge, EF=ligand fixation domain and AF2 fixation site); expressed in transfected cells; host or cells: COS-7 (monkey kidney fibroblasts)
T2 sequence (P37231 238-503 limits assumed): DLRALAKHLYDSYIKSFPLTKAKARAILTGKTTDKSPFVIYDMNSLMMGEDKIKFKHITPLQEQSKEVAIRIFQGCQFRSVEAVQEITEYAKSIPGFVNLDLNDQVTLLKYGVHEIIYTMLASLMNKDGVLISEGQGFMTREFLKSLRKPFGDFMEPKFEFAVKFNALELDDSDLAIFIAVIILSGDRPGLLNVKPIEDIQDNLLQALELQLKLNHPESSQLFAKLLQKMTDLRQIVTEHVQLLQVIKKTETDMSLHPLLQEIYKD
How it was run: (§1)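 COS-7 cells transfected with Gal4-DBD fused to human PPARγ or PPARδ DEF (hinge/ligand-binding) domain plus Gal4(RE)_TkpGL3 luciferase reporter (1:10).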

hPPARδ = target: T3, hPPARδ (Homo sapiens, UniProt Q03181); assay: Gal4-hPPARδ chimera transactivation (luciferase) in COS-7 cells; assay type: cell-based; conditions: COS-7 cells, Gal4-hPPARδ, 24 hours
T3 construct: corresponding to the DEF domains (structural elements of the promoter of the PPARs: D=hinge, EF=ligand fixation domain and AF2 fixation site); expressed in transfected cells; host or cells: COS-7 (monkey kidney fibroblasts)
T3 sequence (Q03181 211-439 limits assumed): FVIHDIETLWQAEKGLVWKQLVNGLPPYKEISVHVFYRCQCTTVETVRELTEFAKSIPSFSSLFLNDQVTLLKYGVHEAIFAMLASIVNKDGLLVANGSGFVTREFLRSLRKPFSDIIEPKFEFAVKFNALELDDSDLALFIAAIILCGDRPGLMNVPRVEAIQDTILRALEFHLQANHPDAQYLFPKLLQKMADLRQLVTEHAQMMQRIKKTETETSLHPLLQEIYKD
How it was run: as §1

| EC50 (hPPARα; luciferase, read-out: PPARα EC50) [nM] | Emax (hPPARα; relative to maximum activation obtained with fenofibric acid, read-out: PPARα TOP % (maximum activation)) [%] | EC50 (hPPARγ; luciferase, read-out: PPARγ EC50) [nM] | Emax (hPPARγ; relative to maximum activation obtained with rosiglitazone, read-out: PPARγ TOP % (maximum activation)) [%] | EC50 (hPPARδ; luciferase, read-out: PPARδ EC50) [nM] | Emax (hPPARδ; relative to maximum activation obtained with GW501516, read-out: PPARδ TOP % (maximum activation)) [%] | SMILES | selectivities for the 3 PPAR isoforms (3 PPAR isoforms) | accumulation of triglycerides in adipocytes [1] | secretion of adiponectin [1] |
| --- | --- | --- | --- | --- | --- | --- | --- | --- | --- |
| – | – | – | – | – | – | COc1nc(-c2ccccc2)ccc1COc1ccc(OC(C)(C)C(=O)O)cc1 [Cpd 1, 2-(4-((2-methoxy-6-phenylpyridin-3-yl)methoxy)phenoxy)-2-methyl-propanoic acid] | comparable selectivities for the 3 PPAR isoforms | – | – |
| 304 | 78 | 1520 | 123 | 595 | 93.9 | COc1nc(-c2ccc(C(F)(F)F)cc2)ccc1CNc1ccc(CCC(=O)O)cc1 [Cpd 36, 3-(4-(((2-methoxy-6-(4-(trifluoromethyl)phenyl)pyridin-3-yl)methyl)amino)-phenyl)propanoic acid] | – | dose-dependent stimulation | dose-dependent stimulation |
